Test results taken from ChEMBL document CHEMBL5543146 (J Med Chem, 2024).

Assays:
[1] = target: T1, Fibroblast growth factor receptor 4 (Homo sapiens, UniProt P22455); assay: Inhibition of N-terminal GST tagged cytoplasmic domain human FGFR4 (460 to 802 residues) expressed in Escherichia coli BL21 (DE3) using CSox as substrate incubated for 240 mins in presence of ATP by hotspot assay
Target sequence in this assay (P22455 whole entry, the tested form may be a part): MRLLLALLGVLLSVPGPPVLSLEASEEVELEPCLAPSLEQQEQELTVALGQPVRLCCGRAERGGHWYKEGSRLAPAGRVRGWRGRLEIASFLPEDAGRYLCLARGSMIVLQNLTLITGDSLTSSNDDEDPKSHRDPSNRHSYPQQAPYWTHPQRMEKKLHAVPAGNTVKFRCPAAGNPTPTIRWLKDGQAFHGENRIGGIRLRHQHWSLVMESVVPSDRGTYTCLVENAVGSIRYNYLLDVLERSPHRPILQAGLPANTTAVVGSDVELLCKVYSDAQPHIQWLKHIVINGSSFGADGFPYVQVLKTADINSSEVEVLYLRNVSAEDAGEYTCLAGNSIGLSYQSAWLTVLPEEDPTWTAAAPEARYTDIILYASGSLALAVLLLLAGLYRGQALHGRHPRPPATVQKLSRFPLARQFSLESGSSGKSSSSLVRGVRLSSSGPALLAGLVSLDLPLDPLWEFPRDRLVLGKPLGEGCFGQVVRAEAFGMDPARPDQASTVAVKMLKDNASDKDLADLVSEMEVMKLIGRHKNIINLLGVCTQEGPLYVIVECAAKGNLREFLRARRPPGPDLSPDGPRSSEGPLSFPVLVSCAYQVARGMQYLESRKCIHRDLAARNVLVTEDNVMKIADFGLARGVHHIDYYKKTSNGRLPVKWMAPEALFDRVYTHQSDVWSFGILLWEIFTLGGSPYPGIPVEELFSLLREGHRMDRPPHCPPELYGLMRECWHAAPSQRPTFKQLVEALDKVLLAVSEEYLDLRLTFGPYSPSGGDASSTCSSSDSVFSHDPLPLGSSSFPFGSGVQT

[2] = target: T1, Fibroblast growth factor receptor 4; assay: Inhibition of N-terminal GST tagged cytoplasmic domain human FGFR4 (460 to 802 residues) expressed in Escherichia coli BL21 (DE3) using CSox as substrate assessed as residual activity at 5 uM incubated for 240 mins in presence of ATP by hotspot assay relative to control
Target sequence in this assay (P22455 22-802 limits assumed): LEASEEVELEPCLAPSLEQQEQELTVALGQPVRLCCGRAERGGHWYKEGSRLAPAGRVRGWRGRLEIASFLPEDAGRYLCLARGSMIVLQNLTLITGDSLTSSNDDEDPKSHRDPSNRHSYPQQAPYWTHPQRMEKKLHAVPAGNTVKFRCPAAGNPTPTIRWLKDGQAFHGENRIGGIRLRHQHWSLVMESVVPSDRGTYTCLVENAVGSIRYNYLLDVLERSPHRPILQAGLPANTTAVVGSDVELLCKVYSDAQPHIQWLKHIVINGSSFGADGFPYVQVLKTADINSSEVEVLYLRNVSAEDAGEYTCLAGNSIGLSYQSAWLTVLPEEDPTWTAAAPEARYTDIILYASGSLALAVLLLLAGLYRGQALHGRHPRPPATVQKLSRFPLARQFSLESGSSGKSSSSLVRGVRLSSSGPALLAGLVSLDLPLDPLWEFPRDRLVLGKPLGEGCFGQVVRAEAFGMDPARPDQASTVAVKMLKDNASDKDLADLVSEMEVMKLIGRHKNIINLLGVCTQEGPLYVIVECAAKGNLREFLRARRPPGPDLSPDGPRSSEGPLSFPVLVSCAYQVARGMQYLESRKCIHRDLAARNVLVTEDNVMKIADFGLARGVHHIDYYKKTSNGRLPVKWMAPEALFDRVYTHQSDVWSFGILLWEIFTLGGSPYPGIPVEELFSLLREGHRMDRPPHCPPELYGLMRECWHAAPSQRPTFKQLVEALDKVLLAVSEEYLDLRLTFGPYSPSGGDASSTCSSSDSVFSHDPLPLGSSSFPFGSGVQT

[3] = target: T2, Dual specificity protein kinase TTK (Homo sapiens, UniProt P33981); assay: Inhibition of human wild type TTK using RBER-CHKtide as substrate in presence of ATP by hotspot assay
T2 sequence (P33981 whole entry): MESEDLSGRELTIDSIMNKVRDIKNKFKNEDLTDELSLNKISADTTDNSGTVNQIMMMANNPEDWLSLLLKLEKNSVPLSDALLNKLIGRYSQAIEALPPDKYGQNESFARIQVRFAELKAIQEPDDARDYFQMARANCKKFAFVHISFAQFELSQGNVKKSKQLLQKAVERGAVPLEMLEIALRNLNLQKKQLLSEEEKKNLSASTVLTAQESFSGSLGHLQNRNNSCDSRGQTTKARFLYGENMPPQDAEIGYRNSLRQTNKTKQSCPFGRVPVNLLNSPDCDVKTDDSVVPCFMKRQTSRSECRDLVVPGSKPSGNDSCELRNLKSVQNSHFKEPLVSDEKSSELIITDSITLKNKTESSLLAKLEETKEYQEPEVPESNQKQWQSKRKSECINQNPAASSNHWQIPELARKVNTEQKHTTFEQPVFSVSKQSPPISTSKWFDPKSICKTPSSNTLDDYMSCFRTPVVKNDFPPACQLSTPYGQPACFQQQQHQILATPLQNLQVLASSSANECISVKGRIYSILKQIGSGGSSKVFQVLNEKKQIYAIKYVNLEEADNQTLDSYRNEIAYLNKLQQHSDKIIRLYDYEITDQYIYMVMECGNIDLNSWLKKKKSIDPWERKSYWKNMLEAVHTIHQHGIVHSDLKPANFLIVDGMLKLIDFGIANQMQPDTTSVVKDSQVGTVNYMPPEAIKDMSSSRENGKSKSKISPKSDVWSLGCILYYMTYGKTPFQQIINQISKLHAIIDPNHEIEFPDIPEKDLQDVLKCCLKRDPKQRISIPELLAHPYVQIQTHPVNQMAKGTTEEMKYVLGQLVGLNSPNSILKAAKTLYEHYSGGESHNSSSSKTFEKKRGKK

[4] = target: T1, Fibroblast growth factor receptor 4; assay: Inhibition of N-terminal GST tagged cytoplasmic domain human FGFR4 (460 to 802 residues) expressed in Escherichia coli BL21 (DE3) by phosphosen-csox based assay
Target sequence in this assay (P22455 whole entry, the tested form may be a part): as the sequence (P22455 whole entry, the tested form may be a part) above

[5] = target: T3, Fibroblast growth factor receptor 1 (Homo sapiens, UniProt P11362); assay: Inhibition of human FGFR1 using poly[Glu:Tyr] (4:1) as substrate in presence of ATP by hotspot assay
T3 sequence (P11362 whole entry): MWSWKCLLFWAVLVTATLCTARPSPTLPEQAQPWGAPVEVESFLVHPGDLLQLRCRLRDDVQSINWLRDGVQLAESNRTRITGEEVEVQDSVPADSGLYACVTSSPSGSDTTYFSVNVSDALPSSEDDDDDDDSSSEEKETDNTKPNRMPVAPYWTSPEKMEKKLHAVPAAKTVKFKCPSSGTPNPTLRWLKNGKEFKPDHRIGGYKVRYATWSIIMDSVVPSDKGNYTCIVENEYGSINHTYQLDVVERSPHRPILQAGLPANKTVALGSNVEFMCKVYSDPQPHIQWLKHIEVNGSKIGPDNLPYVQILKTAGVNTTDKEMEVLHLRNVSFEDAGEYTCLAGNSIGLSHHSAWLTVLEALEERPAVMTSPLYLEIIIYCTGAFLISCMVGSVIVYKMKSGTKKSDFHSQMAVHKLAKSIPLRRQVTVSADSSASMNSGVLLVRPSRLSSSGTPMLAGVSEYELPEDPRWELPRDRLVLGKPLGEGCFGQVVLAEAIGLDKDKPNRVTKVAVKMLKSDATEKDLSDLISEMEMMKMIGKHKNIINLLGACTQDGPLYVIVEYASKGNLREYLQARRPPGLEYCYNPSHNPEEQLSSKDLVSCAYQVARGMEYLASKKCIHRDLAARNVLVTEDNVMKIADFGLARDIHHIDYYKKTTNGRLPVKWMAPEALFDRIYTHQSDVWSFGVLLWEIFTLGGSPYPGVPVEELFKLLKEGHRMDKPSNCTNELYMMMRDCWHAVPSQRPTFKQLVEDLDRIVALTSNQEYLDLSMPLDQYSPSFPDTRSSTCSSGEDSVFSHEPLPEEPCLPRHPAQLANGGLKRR

[6] = target: T4, Fibroblast growth factor receptor 2 (Homo sapiens, UniProt P21802); assay: Inhibition of human FGFR2 in presence of ATP by hotspot assay
T4 sequence (P21802 whole entry): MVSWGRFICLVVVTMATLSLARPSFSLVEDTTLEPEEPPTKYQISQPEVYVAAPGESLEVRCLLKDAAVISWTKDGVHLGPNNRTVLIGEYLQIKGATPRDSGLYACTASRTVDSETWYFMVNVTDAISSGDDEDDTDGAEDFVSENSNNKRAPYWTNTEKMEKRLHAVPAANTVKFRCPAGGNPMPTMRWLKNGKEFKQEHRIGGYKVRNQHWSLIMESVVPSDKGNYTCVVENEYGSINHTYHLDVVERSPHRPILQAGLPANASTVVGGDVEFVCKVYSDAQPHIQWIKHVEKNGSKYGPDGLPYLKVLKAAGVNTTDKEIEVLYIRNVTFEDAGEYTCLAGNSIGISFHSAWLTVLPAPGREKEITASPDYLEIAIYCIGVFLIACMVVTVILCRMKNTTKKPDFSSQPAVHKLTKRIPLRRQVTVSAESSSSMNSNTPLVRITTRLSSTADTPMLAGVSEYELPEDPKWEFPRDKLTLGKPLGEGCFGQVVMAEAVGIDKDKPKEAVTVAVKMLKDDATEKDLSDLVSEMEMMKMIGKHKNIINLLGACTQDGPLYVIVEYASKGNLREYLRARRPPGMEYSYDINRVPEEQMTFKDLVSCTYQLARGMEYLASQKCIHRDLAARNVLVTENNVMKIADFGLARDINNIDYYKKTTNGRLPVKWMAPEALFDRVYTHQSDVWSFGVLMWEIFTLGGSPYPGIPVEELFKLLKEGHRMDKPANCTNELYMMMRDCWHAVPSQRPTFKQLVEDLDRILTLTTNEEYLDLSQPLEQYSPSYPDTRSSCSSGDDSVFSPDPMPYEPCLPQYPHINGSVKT

[7] = target: T5, Fibroblast growth factor receptor 3 (Homo sapiens, UniProt P22607); assay: Inhibition of human wild type FGFR3 using polyEY as substrate in presence of ATP by hotspot assay
Target sequence in this assay (P22607 whole entry): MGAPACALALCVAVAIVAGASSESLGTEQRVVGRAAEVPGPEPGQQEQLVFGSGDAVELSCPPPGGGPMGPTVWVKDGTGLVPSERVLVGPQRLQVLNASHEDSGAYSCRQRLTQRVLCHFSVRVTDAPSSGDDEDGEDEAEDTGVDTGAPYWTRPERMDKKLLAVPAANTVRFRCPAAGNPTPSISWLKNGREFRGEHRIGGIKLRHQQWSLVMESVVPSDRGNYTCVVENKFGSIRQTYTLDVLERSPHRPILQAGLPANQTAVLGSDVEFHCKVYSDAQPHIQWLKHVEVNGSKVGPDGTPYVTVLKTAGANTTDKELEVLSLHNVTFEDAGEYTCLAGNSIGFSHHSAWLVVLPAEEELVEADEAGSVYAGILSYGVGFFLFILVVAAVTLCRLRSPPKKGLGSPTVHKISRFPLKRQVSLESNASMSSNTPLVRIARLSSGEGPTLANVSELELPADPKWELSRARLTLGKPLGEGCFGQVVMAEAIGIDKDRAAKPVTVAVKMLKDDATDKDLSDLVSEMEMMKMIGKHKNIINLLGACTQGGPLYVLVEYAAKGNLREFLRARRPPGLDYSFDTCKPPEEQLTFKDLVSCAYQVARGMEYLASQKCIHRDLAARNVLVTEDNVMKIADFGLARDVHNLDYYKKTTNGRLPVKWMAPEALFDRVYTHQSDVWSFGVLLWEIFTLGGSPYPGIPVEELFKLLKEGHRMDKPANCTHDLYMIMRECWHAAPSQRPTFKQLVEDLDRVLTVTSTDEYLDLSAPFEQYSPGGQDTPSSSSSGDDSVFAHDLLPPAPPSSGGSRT

[8] = target: Ribosomal protein S6 kinase beta-2 (Homo sapiens, UniProt Q9UBS0); assay: Inhibition of human wild type S6K2 using RBER-CHKtide as substrate in presence of ATP by hotspot assay
Chain of Ribosomal protein S6 kinase beta-2 (Q9UBS0 whole entry): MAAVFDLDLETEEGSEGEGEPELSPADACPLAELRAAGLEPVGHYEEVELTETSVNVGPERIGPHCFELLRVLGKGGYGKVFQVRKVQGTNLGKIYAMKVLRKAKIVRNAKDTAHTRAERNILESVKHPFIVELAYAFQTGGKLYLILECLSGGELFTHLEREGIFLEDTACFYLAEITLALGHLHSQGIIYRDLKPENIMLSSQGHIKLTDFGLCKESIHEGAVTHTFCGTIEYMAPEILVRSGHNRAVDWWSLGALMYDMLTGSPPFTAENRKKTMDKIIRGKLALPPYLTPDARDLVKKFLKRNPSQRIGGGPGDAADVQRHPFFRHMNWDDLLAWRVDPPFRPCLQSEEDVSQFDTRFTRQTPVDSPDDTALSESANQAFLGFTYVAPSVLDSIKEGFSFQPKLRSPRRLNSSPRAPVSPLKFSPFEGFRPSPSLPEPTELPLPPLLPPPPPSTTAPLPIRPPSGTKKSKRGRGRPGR

[9] = target: MAP kinase-activated protein kinase 2 (Homo sapiens, UniProt P49137); assay: Inhibition of human MAPKAPK2 using KKLNRTLSVA as substrate in presence of ATP by hotspot assay
[10] = target: MAP kinase-activated protein kinase 3 (Homo sapiens, UniProt Q16644); assay: Inhibition of human MAPKAPK3 using KKLNRTLSVA as substrate in presence of ATP by hotspot assay
Chain of MAP kinase-activated protein kinase 3 (Q16644 whole entry, the tested form may be a part): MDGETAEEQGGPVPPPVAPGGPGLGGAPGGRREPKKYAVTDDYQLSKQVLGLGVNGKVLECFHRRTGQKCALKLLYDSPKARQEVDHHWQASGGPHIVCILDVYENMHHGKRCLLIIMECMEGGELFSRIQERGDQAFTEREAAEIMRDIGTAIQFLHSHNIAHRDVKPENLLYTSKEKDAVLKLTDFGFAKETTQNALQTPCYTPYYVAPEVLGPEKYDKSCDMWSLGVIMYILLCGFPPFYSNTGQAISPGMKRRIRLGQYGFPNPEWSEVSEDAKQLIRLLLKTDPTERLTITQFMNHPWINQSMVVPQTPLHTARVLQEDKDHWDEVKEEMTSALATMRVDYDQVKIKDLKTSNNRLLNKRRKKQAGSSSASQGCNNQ

[11] = target: T1, Fibroblast growth factor receptor 4; assay: Binding affinity to N-terminal GST tagged cytoplasmic domain human FGFR4 (460 to 802 residues) expressed in Escherichia coli BL21 (DE3) assessed as inhibition constant using sox as substrate incubated for 30 mins followed by enzyme addition and measured after 120 mins in presence of ATP by PhosphoSens CSox-based continuous assay
Target sequence in this assay (P22455 whole entry, the tested form may be a part): as the sequence (P22455 whole entry, the tested form may be a part) above

[12] = target: T3, Fibroblast growth factor receptor 1; assay: Inhibition of full length nanoluc-fused FGFR1 transfected in HEK293T cells assessed as target engagement incubated for 3 hrs in presence of K10 tracer by Nano BRET assay; type: cell-based
[13] = target: T4, Fibroblast growth factor receptor 2; assay: Inhibition of full length nanoluc-fused FGFR2 transfected in HEK293T cells assessed as target engagement incubated for 3 hrs in presence of K10 tracer by Nano BRET assay; type: cell-based
[14] = target: T5, Fibroblast growth factor receptor 3; assay: Inhibition of full length nanoluc-fused FGFR3 transfected in HEK293T cells assessed as target engagement incubated for 3 hrs in presence of K10 tracer by Nano BRET assay; type: cell-based
Target sequence in this assay (P22607 whole entry): as the sequence (P22607 whole entry) above

[15] = target: T1, Fibroblast growth factor receptor 4; assay: Inhibition of full length nanoluc-fused FGFR4 transfected in HEK293T cells assessed as target engagement incubated for 3 hrs in presence of K10 tracer by Nano BRET assay; type: cell-based
Target sequence in this assay (P22455 whole entry, the tested form may be a part): as the sequence (P22455 whole entry, the tested form may be a part) above

Hep 3B2 = assay: cells; conditions: Homo sapiens, Hep3B, 96 h
Description: Antiproliferative activity against human Hep3B cells measured after 4 days by Celltiter-glo based luminescent assay

[16] = target: T5, Fibroblast growth factor receptor 3; assay: Binding affinity to FGFR3 (unknown origin) assessed as change in melting temperature by differential scanning fluorimetry analysis
[17] = Metabolic stability in human liver microsomes assessed as compound remaining measured after 2 hrs in presence of NADPH regenerating system measured upto 120 mins by LC-MS analysis; type: ADME, Microsome; conditions: read-out: Stability

## COc1cc(OC)cc(-c2ccc3nc(Sc4ccnc(Cl)n4)ncc3c2)c1
[1]
  IC50: > 5000 nM
[2]
  Activity: 82.6%

## COc1cc(OC)cc(-c2ccc3nc(-c4cccc5cnc(Cl)nc45)ncc3c2)c1
[1]
  IC50: > 5000 nM
[2]
  Activity: 96.5%

## COc1cc(OC)cc(-c2ccc3nc(Sc4nc(Cl)ncc4F)ncc3c2)c1
[1]
  IC50: > 5000 nM
[2]
  Activity: 96.5%

## COc1cc(OC)cc(-c2ccc3nc(-n4ccc5cnc(Cl)nc54)ncc3c2)c1
[1]
  IC50: > 5000 nM

## COc1cc(OC)cc(-c2ccc3nc(Nc4nc(C)ccc4[N+](=O)[O-])ncc3c2)c1
[1]
  IC50: > 5000 nM
[2]
  Activity: 53.6%

## COc1cc(OC)cc(-c2ccc3nc(Sc4nc(Cl)ccc4[N+](=O)[O-])ncc3c2)c1
[1]
  IC50: 4450 nM

## COc1cc(OC)cc(-c2ccc3nc(Nc4nc(Cl)ccc4[N+](=O)[O-])ncc3c2)c1
[3]
  IC50: > 5000 nM
[1]
  IC50: < 0.5 nM
[4]
  IC50: 4.5 nM
[5]
  IC50: > 5000 nM
[6]
  IC50: > 5000 nM
[7]
  IC50: > 5000 nM
[8]
  IC50: 4.48 nM
[9]
  IC50: > 5000 nM
[10]
  IC50: > 5000 nM
[11]
  Ki: 37.9 nM
[12]
  EC50: > 10000 nM
[13]
  EC50: > 10000 nM
[14]
  EC50: > 10000 nM
[15]
  EC50: 30 nM
Hep 3B2
  EC50: 5 nM

## COc1cc(OC)c(Cl)c(-c2ccc3nc(Nc4ncccc4[N+](=O)[O-])ncc3c2)c1Cl
[1]
  IC50: 1700 nM
[2]
  Activity: 89.4%
[16]
  ΔTm: 4.5 °C
[12]
  EC50: 867 nM
[13]
  EC50: 867 nM
[14]
  EC50: 1780 nM
[15]
  EC50: 2260 nM
[17]
  remaining at 2 h: > 80%
Hep 3B2
  EC50: 1070 nM

## C=CC(=O)Nc1cccc(C)c1Nc1ncc2cc(-c3c(Cl)c(OC)cc(OC)c3Cl)ccc2n1
[12]
  EC50: 4260 nM
[13]
  EC50: 3300 nM
[14]
  EC50: 2240 nM
Hep 3B2
  EC50: 62 nM

## COc1cc(OC)cc(-c2ccc3nc(Sc4ncccc4[N+](=O)[O-])ncc3c2)c1
[1]
  IC50: > 5000 nM
[2]
  Activity: 97.9%

## COc1cc(OC)cc(-c2ccc3nc(Nc4ncccc4[N+](=O)[O-])ncc3c2)c1
[1]
  IC50: > 5000 nM
[2]
  Activity: 92.1%

## COc1cc(OC)c(Cl)c(-c2ccc3nc(Nc4nc(Cl)ccc4[N+](=O)[O-])ncc3c2)c1Cl
[3]
  IC50: > 5000 nM
[1]
  IC50: < 0.5 nM
[4]
  IC50: 1.2 nM
[6]
  IC50: 490 nM
[7]
  IC50: > 5000 nM
[8]
  IC50: 18.2 nM
[11]
  Ki: 5.7 nM
[13]
  EC50: 1290 nM
[14]
  EC50: 1430 nM
[15]
  EC50: 52 nM

## COc1cc(OC)cc(-c2ccc3nc(Sc4ccnc(F)n4)ncc3c2)c1
[1]
  IC50: > 5000 nM
[2]
  Activity: > 100%

## COc1cc(OC)c(Cl)c(-c2ccc3ncncc3c2)c1Cl
[1]
  IC50: 2090 nM

## COc1cc(OC)cc(-c2ccc3ncncc3c2)c1
[1]
  IC50: > 5000 nM
[2]
  Activity: 93.1%
